As usually defined, the Kd is a measure of binding affinity in units of concentration.

Where two headings read alike, the source gives them in different places. No end group written: not given here.

Assay [1] concerns the target T1, K^b of MHC class I (Mus musculus, UniProt P01901).
T1 construct: the cell line (RMA-S) that expresses K^b and D^b molecules; endogenous in cells; host or cells: RMA-S cells
T1 sequence (P01901 22-369): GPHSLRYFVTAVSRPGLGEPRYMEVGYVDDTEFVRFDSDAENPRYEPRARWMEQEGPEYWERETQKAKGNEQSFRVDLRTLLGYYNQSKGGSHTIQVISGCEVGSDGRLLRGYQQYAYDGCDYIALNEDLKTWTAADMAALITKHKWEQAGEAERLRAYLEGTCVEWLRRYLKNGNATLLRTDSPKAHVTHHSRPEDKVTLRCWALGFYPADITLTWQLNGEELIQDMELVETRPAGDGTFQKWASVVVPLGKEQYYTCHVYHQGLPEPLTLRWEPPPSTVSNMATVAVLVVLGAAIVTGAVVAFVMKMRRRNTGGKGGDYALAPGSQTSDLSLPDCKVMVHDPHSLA
T1 sequence (P01887 21-119 partner): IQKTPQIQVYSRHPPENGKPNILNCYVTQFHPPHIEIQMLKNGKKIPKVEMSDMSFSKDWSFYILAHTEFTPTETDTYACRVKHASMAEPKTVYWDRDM
As to the kind of experiment: Binding of peptides to K^b on RMA-S cells (fluorescent antibody staining, binding dissociation constant). Conditions: peptide 37° C. 1 hour. How it is done:
(§1) Thus, RMA-S was cultured at 26° C. to effect high expression of MHC class I, and the cultured cells were incubated with the solutions of the test peptides at 37° C. for 1 hour. […] Then using fluorescently labeled monoclonal antibody that recognizes MHC class I (K^b, D^b), RMA-S cells were stained. Finally, the binding dissociation constant was calculated from the average amount of fluorescence per cell (Immunol. Lett., 47: 1, 1995).

The target in assay [2] is T2, D^b of MHC class I (Mus musculus, UniProt P01899).
T2 construct: the cell line (RMA-S) that expresses K^b and D^b molecules; endogenous in cells; host or cells: RMA-S cells
T2 sequence (P01899 25-362): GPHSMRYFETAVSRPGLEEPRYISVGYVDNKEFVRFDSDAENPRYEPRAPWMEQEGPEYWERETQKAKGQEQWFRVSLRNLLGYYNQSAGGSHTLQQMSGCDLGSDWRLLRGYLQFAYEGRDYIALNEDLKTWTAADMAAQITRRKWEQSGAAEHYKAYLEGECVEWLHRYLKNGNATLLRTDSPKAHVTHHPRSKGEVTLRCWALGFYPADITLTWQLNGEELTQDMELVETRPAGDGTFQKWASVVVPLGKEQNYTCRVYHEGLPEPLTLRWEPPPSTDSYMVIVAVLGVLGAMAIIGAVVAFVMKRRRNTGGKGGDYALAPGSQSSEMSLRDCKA
T2 sequence (P01887 21-119 partner): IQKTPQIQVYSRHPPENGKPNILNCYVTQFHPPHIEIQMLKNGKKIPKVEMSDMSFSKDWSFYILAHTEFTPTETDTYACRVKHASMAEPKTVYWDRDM
The assay can be described thus: Binding of peptides to D^b on RMA-S cells (fluorescent antibody staining, binding dissociation constant). How it is done:
Thus, RMA-S was cultured at 26° C. to effect high expression of MHC class I, and the cultured cells were incubated with the solutions of the test peptides at 37° C. for 1 hour. […] Then using fluorescently labeled monoclonal antibody that recognizes MHC class I (K^b, D^b), RMA-S cells were stained.

The subject of assay [3] is induced CTL. The assay can be described thus: FACS analysis of surface markers of induced CTL, Example 3. It counts as cell-based. The note with it: human CTL, FIGS. 5 to 10. How it is done: One week later, T2 cells that were irradiated after incubating for 1 hour with the peptide (20 μg/ml) were added to the above culture system for restimulation. From the following day, human IL-2 (final concentration 100 JRU/ml) was added to the culture.
Subsequently, after repeating, for five times, stimulation with the T2 cells that were irradiated after being pulsed with the peptide, a killing assay was performed using, as the target, the T2 cells pulsed with the peptide or the T2 cells not pulsed with the peptide. The surface markers of the induced CTL were subjected to FACS analysis.

For assay [4], the target named is T3, HLA-A* 0201 (Homo sapiens, UniProt P04439, D140Y/D185E/D98H/E176V/E277Q/G131W/G231S/I119V/I121R/I166T/I218V/L300P/L318F/N151K/N90K/P208A/P217A/Q86G/Q94H/R138H/R169H/T345S).
T3 construct: T2 cells having the empty HLA-A* 0201 molecules; endogenous in cells; host or cells: T2 cells
The assay can be described thus: Binding of peptides to HLA-A* 0201 on T2 cells (FACS, binding dissociation constant). Conditions: 37° C. 1 hour.

Assay [5] addresses T4, HLA-A* 0201, on T2 cells (human).
T4 construct: whole, on cells; Empty HLA-A*0201 molecules on T2 cells; also called HLA-A2.1; A* 0201 of human HLA
The assay can be described thus: peptide binding to empty HLA-A*0201 on T2 cells, staining with fluorescent anti-HLA-A2.1 antibody, FACS. How it is done: The above peptides and T2 cells having the empty HLA-A* 0201 molecules (J. Immunol., 150: 1763, 1993; Blood, 88: 2450, 1996) were incubated at 37° C. for 1 hour, and then the T2 cells were stained with fluorescently labeled monoclonal antibody that recognizes HLA-A2.1 to calculate the binding dissociation constant based on the average amount of fluorescence per cell in the FACS analysis.

Assay [6] concerns the target T5, D^b of mouse MHC class I, on RMA-S cells (mouse, UniProt P01887 21-119; P01899 25-362).
T5 construct: whole, on cells; Empty MHC class I on RMA-S cells cultured at 26 C; also called H-2D^b
T5 sequence (MHC heavy, looked up): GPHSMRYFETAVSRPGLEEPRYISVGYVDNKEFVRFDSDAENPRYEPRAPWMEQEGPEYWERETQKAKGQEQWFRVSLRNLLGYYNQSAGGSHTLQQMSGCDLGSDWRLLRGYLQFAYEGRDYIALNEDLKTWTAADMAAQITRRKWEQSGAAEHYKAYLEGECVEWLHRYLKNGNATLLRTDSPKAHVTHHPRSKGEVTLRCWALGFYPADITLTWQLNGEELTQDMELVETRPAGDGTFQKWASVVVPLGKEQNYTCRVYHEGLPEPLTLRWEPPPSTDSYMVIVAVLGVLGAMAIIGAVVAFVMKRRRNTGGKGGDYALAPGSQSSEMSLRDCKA
T5 sequence (b2m, looked up): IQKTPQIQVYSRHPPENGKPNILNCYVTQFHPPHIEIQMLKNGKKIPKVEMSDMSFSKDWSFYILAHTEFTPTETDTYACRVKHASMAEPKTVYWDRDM
The assay can be described thus: MHC stabilisation on RMA-S cells, staining with fluorescent anti-MHC class I antibody, flow cytometry. How it is done: as §1
A general note: A flow cytometer gives signals particle by particle.

For assay [7], the target named is T6, K^b of mouse MHC class I, on RMA-S cells (mouse, UniProt P01887 21-119; P01901 22-369).
T6 construct: whole, on cells; Empty MHC class I on RMA-S cells cultured at 26 C; also called H-2K^b
T6 sequence (MHC heavy, looked up): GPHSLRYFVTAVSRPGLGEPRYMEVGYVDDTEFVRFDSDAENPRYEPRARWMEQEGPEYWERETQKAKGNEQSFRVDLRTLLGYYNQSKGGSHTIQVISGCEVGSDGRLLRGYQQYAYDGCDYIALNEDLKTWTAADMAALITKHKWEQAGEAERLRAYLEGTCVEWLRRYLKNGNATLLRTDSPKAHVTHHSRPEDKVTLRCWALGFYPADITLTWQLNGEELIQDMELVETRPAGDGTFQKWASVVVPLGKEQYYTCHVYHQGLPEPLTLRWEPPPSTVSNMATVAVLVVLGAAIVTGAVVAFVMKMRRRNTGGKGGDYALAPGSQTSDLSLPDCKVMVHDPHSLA
T6 sequence (b2m, looked up): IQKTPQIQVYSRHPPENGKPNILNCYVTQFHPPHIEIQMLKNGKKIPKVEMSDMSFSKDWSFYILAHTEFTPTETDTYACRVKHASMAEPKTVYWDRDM
The assay is described as above. How it is done: as §1

Where [8] appears, read: RMA-S cells, peptide 37° C. 1 hour, read-out: binding dissociation constant (Kd value) with D^b (converted).

As to CNKRYFKL [K^b 330], in assay [1], the Kd was 1730 nM. Take YSSDNLYQM [D^b 221]: in assay [2] (setting [8]), the dissociation constant Kd was 1760 nM. GASAYGSL [K^b 45] had a Kd in assay [1] of 26400 nM. On to `CSCC[C@H](NC(=O)[C@@H](N)CCCNC(=N)N)C(=O)N[C@@H](Cc1ccccc1)C(=O)N1CCC[C@H]1C(=O)N[C@@H](CC(N)=O)C(=O)N[C@@H](C)C(=O)N1CCC[C@H]1C(=O)N[C@@H](Cc1ccc(O)cc1)C(=O)N[C@@H](CC(C)C)C(=O)O` [D^b 126], for which the dissociation constant (Kd) in assay [2] was 521 nM. Regarding CMTWNQMNL [D^b 235], the dissociation constant Kd in assay [2] (setting [8]) was 715 nM. Consider SLGEQQYSV [WH 187], for which the “surface markers of induced CTL (CD4, CD8)” value in assay [3] is “The CD4-positive cells and the CD8-positive cells were almost equal in the number”. Also, the Kd in assay [4] is 7610 nM. On to SLGEQQYSV [WH 187 peptide], for which the Kd in assay [5] is 7610 nM. Take CMTWNQMNL [D^b 235 peptide]: in assay [6], the “log of binding dissociation constant (Kd)” value (shortened to “log”) is -6.15 log.

B1: D^b 126 peptide (peptide)
peptide: RMFPNAPYL
notes: It was tested on both H-2D^b and HLA-A*0201
As to B1, the “log” value in assay [6] was -6.28 log. Consider YSSDNLYQM [D^b 221 peptide], for which, in assay [6], the “log” value was -5.75 log. Regarding CNKRYFKL [K^b 330 peptide], the “log” value in assay [7] is -5.76 log. Still for that read-out and setting: the figure for GASAYGSL [K^b 45 peptide] is -4.58 log.

Source of the values: US20050266014A1, “Tumor antigen based on products of the tumor suppressor gene WT1” (HARUO SUGIYAMA, priority 1998, published 2005).
